Measurements as given in patent US20240376074A1, “NAMPT INHIBITORS AND USES THEREOF” (Remedy Plan, Inc., priority 2021, published 2024).

Target: T1, NAMPT (Homo sapiens, UniProt P43490)
T1 construct: purchased Abcam ab221819
Test: NAMPT Activity Assay (Abcam #ab221819)
Format: biochemical
Details: purified NAMPT, percent inhibition from OD450 nm; compound concentration not given
Experimental: The NAMPT Activity Assay (Abcam #ab221819) was performed following manufacturers two-step reaction protocol. Briefly, compounds were added to a clear 96-well plate using the HP D300e Digital Dispenser. Purified NAMPT was added to all wells except the No NAMPT controls. Reaction Mix #1 was added to each well and the plate was incubated at 30*C for 1 hr followed by the addition of Reaction Mix #2. Absorbance was measured at OD450 nm using a multimode plate reader. Readings were recorded for 5 minutes and percent inhibition was calculated using: (1-(OD450 nm compound/OD450nm no drug))*100.

T1 sequence (P43490 whole entry): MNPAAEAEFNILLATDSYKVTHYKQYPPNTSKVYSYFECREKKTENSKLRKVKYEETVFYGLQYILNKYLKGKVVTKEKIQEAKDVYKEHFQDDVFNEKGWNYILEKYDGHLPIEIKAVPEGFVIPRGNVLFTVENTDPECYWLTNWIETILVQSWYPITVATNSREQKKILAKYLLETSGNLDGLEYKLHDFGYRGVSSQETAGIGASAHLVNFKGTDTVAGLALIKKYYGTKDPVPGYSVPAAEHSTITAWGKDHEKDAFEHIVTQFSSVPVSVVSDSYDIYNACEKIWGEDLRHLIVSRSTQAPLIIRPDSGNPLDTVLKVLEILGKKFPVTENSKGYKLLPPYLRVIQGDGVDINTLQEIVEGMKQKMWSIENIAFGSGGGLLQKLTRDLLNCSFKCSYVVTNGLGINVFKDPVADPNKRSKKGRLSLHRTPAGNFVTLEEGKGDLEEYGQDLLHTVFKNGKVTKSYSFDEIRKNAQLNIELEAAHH

SMILES | NAMPT Inhibition Code*
CC(=O)N(CC1CC1)c1ccc(-c2ccc(C(=O)NCCc3cccnc3)cn2)cc1C#N [I-T2305, 6-[4-[Acetyl(cyclopropylmethyl)amino]-3-cyano-phenyl]-N-[2-(3-pyridyl)ethyl]pyridine-3-carboxamide] | C (C = ≥66% inhibition)
CC(=O)N(CC1CC1)c1ccc(-c2ccc(C(=O)NCCCc3cc[nH]n3)cn2)cc1Cl [I-T2127, 6-[4-[Acetyl(cyclopropylmethyl)amino]-3-chloro-phenyl]-N-[3-(1H-pyrazol-3-yl)propyl]pyridine-3-carboxamide] | C (C = ≥66% inhibition)
CC(=O)N(CC1CC1)c1ccc(-c2ccc(NC(=O)Cc3ccc(Cl)cc3)cn2)cc1Cl [I-T2393, N-[6-[4-[acetyl(cyclopropylmethyl)amino]-3-chloro-phenyl]-3-pyridyl]-2-(4-chlorophenyl)acetamide] | C (C = ≥66% inhibition)
CC(=O)N(CC1CC1)c1ccc(-c2ccc(NC(=O)CC3CCCCC3)cn2)cc1Cl [I-T2394, N-[6-[4-[acetyl(cyclopropylmethyl)amino]-3-chloro-phenyl]-3-pyridyl]-2-cyclohexyl-acetamide] | A (*A = <33% inhibition)
CC(=O)N(CC1CC1)c1ccc(-c2ccc(C(=O)NCc3cc[nH]n3)cn2)cc1Cl [I-T2132, 6-[4-[Acetyl(cyclopropylmethyl)amino]-3-chloro-phenyl]-N-(1H-pyrazol-3-ylmethyl)pyridine-3-carboxamide] | A (*A = <33% inhibition)
CC(=O)N(CC1CC1)c1ccc(-c2ccc(NC(=O)/C=C/c3cccnc3)cn2)cc1Cl [I-T2124, (E)-N-[6-[4-[acetyl(cyclopropylmethyl)amino]-3-chloro-phenyl]-3-pyridyl]-3-(3-pyridyl)prop-2-enamide] | C (C = ≥66% inhibition)
CC(=O)N(CC1CC1)c1ccc(-c2ccc(C(=O)NCc3ccsc3)cn2)cc1Cl [I-T2149, 6-[4-[Acetyl(cyclopropylmethyl)amino]-3-chloro-phenyl]-N-(3-thienylmethyl)pyridine-3-carboxamide] | B (B = >33 to <66% inhibition)
CC(=O)N(CC1CC1)c1ccc(-c2ccc(C(=O)NCC3CCCCO3)cn2)cc1Cl (centres unmarked) [I-T2340, 6-[4-[acetyl(cyclopropylmethyl)amino]-3-chloro-phenyl]-N-(tetrahydropyran-2-ylmethyl)pyridine-3-carboxamide] | A (*A = <33% inhibition)
CC(=O)N(CC(F)F)c1ccc(-c2ccc(NC(=O)COc3cccnc3)cn2)cc1Cl [I-T2291, N-[6-[4-[acetyl(2,2-difluoroethyl)amino]-3-chloro-phenyl]-3-pyridyl]-2-(3-pyridyloxy)acetamide] | C (C = ≥66% inhibition)
CC(=O)N(CC1CC1)c1ccc(-c2ccc(NC(=O)C(F)c3ccccc3)cn2)cc1Cl (centres unmarked) [I-T2331, N-[6-[4-[acetyl(cyclopropylmethyl)amino]-3-chloro-phenyl]-3-pyridyl]-2-fluoro-2-phenyl-acetamide] | B (B = >33 to <66% inhibition)
CC(=O)N(CC1CC1)c1ccc(-c2ccc(NC(=O)C3CC3c3cccnc3)cn2)cc1Cl (centres unmarked) [I-T2289, N-[6-[4-[acetyl(cyclopropylmethyl)amino]-3-chloro-phenyl]-3-pyridyl]-2-(3-pyridyl)cyclo propanecarboxamide] | C (C = ≥66% inhibition)
CC(=O)N(CC(F)F)c1ccc(-c2ccc(NC(=O)C3CC3c3cccnc3)cn2)cc1Cl (centres unmarked) [I-T2294, N-[6-[4-[acetyl(2,2-difluoroethyl)amino]-3-chloro-phenyl]-3-pyridyl]-2-(3-pyridyl)cyclopropane carboxamide] | C (C = ≥66% inhibition)
CC(=O)N(CC(F)F)c1ccc(-c2ccc(C(=O)Nc3cnc4nccn4c3)cn2)cc1Cl [I-T2201, 6-[4-[Acetyl(2,2-difluoroethyl)amino]-3-chloro-phenyl]-N-imidazo[1,2-a]pyrimidin-6yl-pyridine-3-carboxamide] | C (C = ≥66% inhibition)
CC(=O)N(CC1CC1)c1ccc(-c2ccc(C(=O)NCc3ccc(C(F)F)nc3)cn2)cc1Cl [I-T2397, 6-[4-[acetyl(cyclopropylmethyl)amino]-3-chloro-phenyl]-N-[[6-(difluoromethyl)-3-pyridyl]methyl]pyridine-3-carboxamide] | C (C = ≥66% inhibition)
CC(=O)N(CC1CC1)c1ccc(-c2ccc(NC(=O)/C=C/c3ccccc3)cn2)cc1Cl [I-T2329, (E)-N-[6-[4-[acetyl(cyclopropylmethyl)amino]-3-chloro-phenyl]-3-pyridyl]-3-phenyl-prop-2-enamide] | C (C = ≥66% inhibition)
COC(=O)c1cc(-c2ccc(C(=O)Nc3cnc4nccn4c3)cn2)ccc1N(CC1CC1)C(C)=O [I-T2295, Methyl 2-[acetyl(cyclopropylmethyl)amino]-5-[5-(imidazo[1,2-a]pyrimidin-6-ylcarbamoyl)-2-pyridyl]benzoate] | C (C = ≥66% inhibition)

SMILES | NAMPT Inhibition Code*
CC(=O)N(CC1CC1)c1ccc(-c2ccc(NC(=O)CCc3cccnc3F)cn2)cc1Cl [I-T2369] | C (C = ≥66% inhibition)
CC(=O)N(CC1CC1)c1ccc(-c2ccc(C(=O)NCc3cscn3)cn2)cc1Cl [I-T2354, 6-[4-[acetyl(cyclopropylmethyl)amino]-3-chloro-phenyl]-N-(thiazol-4-ylmethyl)pyridine-3-carboxamide] | A (*A = <33% inhibition)
CC(=O)N(CC1CC1)c1ccc(-c2ccc(C(=O)NCCCc3cn[nH]c3)cn2)cc1Cl [I-T2269, 6-[4-[Acetyl(cyclopropylmethyl)amino]-3-chloro-phenyl]-N-[3-(1H-pyrazol-4-yl)propyl]pyridine-3-carboxamide] | C (C = ≥66% inhibition)
CC(=O)N(CC1CC1)c1ccc(-c2ccc(C(=O)NCC3CC(F)(F)C3)cn2)cc1Cl [I-T2345, 6-[4-[acetyl(cyclopropylmethyl)amino]-3-chloro-phenyl]-N-[(3,3-difluorocyclobutyl)methyl]pyridine-3-carboxamide] | A (*A = <33% inhibition)
CC(=O)N(CC1CC1)c1ccc(-c2ccc(C(=O)NCC3CCCC34CC4)cn2)cc1Cl (centres unmarked) [I-T2343, 6-[4-[acetyl(cyclopropylmethyl)amino]-3-chloro-phenyl]-N-(spiro[2.4]heptan-7-ylmethyl)pyridine-3-carboxamide] | A (*A = <33% inhibition)
CC(=O)N(CC1CC1)c1ccc(-c2ccc(C(=O)NCCCc3cn[nH]c3)cn2)cc1C#N [I-T2306, 6-[4-[acetyl(cyclopropylmethyl)amino]-3-cyano-phenyl]-N-[3-(1H-pyrazol-4-yl)propyl]pyridine-3-carboxamide] | C (C = ≥66% inhibition)
CC(=O)N(CC1CC1)c1ccc(-c2ccc(C(=O)N3Cc4ccncc4C3)cn2)cc1Cl [I-T2138, N-[2-Chloro-4-[5-(1,3-dihydropyrrolo[3,4-c]pyridine-2-carbonyl)-2-pyridyl]phenyl]-N-(cyclopropylmethyl)acetamide] | A (*A = <33% inhibition)
CC(=O)N(CC1CC1)c1ccc(-c2ccc(NC(=O)Cc3cccnc3)cn2)cc1Cl [I-T2267, N-[6-[4-[acetyl(cyclopropylmethyl)amino]-3-chloro-phenyl]-3-pyridyl]-2-(3-pyridyl)acetamide] | C (C = ≥66% inhibition)
CC(=O)N(CC1CC1)c1ccc(-c2ccc(C(=O)NCC3CCOC3)cn2)cc1Cl (centres unmarked) [I-T2115, 6-[4-[Acetyl(cyclopropylmethyl)amino]-3-chloro-phenyl]-N-(tetrahydrofuran-3-ylmethyl) pyridine-3-carboxamide] | A (*A = <33% inhibition)
CC(=O)N(CC1CC1)c1ccc(-c2ccc(C(=O)NC3Cc4ccc(Br)cc4C3)cn2)cc1Cl (centres unmarked) [I-T2153, 6-[4-[Acetyl(cyclopropylmethyl)amino]-3-chloro-phenyl]-N-(5-bromoindan-2-yl)pyridine-3-carboxamide] | A (*A = <33% inhibition)
CC(=O)N(CC1CC1)c1ccc(-c2ccc(C(=O)NCc3cccc(F)c3)cn2)cc1Cl [I-T2341, 6-[4-[acetyl(cyclopropylmethyl)amino]-3-chloro-phenyl]-N-[(3-fluorophenyl)methyl]pyridine-3-carboxamide] | C (C = ≥66% inhibition)
CC(=O)N(CC1COC1)c1ccc(-c2ccc(C(=O)NCc3ccccc3)cn2)cc1Cl [I-T2327, 6-[4-[acetyl(oxetan-3-ylmethyl)amino]-3-chloro-phenyl]-N-benzyl-pyridine-3-carboxamide] | A (*A = <33% inhibition)
CC(=O)N(CC1CC1)c1ccc(-c2ccc(C(=O)NCCCc3cnn(C)c3)cn2)cc1Cl [I-T2366, 6-[4-[acetyl(cyclopropylmethyl)amino]-3-chloro-phenyl]-N-[3-(1-methylpyrazol-4-yl)propyl]pyridine-3-carboxamide] | A (*A = <33% inhibition)
CC(=O)N(CC1CC1)c1ccc(-c2ccc(C(=O)NCc3cccs3)cn2)cc1Cl [I-T2352, 6-[4-[acetyl(cyclopropylmethyl)amino]-3-chloro-phenyl]-N-(2-thienylmethyl)pyridine-3-carboxamide] | B (B = >33 to <66% inhibition)
CC(=O)N(CC1CC1)c1ccc(-c2ccc(C(=O)NCCN3CCCCC3)cn2)cc1Cl [I-T2339, 6-[4-[acetyl(cyclopropylmethyl)amino]-3-chloro-phenyl]-N-[2-(1-piperidyl)ethyl]pyridine-3-carboxamide] | A (*A = <33% inhibition)
CC(=O)N(CC1CC1)c1ccc(-c2ccc(NC(=O)COc3ccccc3)cn2)cc1Cl [I-T2328, N-[6-[4-[acetyl(cyclopropylmethyl)amino]-3-chloro-phenyl]-3-pyridyl]-2-phenoxy-acetamide] | C (C = ≥66% inhibition)
